Experimental data: ChEMBL document CHEMBL1201862, “PubChem BioAssay data set” (2004)
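Each compound was tested at five concentrations against cells in 96-well plates for 48 hours. Here, GI50 denotes the concentration required for 50% inhibition of growth.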 Active and inactive are the calls of the source. Rule as the data show it: active = GI50 up to about 1.1 µM and inactive = higher.

Columns and labels:
Experiment in all cases: DTP human tumour cell line panel, 48 h
[1] = test system: M14
[2] = test system: MDA-MB-231
[3] = test system: OVCAR-5
[4] = test system: NCI-H460
[5] = test system: TK-10
[6] = test system: CCRF-CEM
[7] = test system: K562
[8] = test system: HCC 2998
[9] = test system: MCF7
[10] = test system: SF-268
[11] = test system: UACC-257
[12] = test system: OVCAR-3
[13] = test system: SF-539
[14] = test system: HT-29
[15] = test system: NCI-H23
[16] = test system: NCI-H522
[17] = test system: HCT-116
[18] = test system: HOP-92
[19] = test system: OVCAR-4
[20] = test system: CAKI-1
[21] = test system: UO-31
[22] = test system: SK-MEL-28
[23] = test system: COLO 205
[24] = test system: SN12C
[25] = test system: EKVX
[26] = test system: SK-MEL-2
[27] = test system: 786-0
[28] = test system: MDA-N
[29] = test system: IGROV-1
[30] = test system: OVCAR-8
[31] = test system: HCT-15
[32] = test system: Hs-578T
[33] = test system: PC-3
[34] = test system: U-251
[35] = test system: RXF 393
[36] = test system: DU-145
[37] = test system: SK-MEL-5
[38] = test system: SW-620
[39] = test system: BT-549
[40] = test system: MDA-MB-435
[41] = test system: NCI-H226
[42] = test system: A549
[43] = test system: UACC-62
[44] = test system: SNB-75
[45] = test system: SR
[46] = test system: A498
[47] = test system: NCI/ADR-RES
[48] = test system: RPMI-8226
[49] = test system: KM12
[50] = test system: T47D
[51] = test system: ACHN
[52] = test system: HOP-62
[53] = test system: HL-60
[54] = test system: LOX IMVI
[55] = test system: Malme-3M
[56] = test system: SNB-19
[57] = test system: MOLT-4
[58] = test system: SK-OV-3
[59] = test system: SF-295

Structure (SMILES): Cc1cnc2c(c1)C(=O)C1=C(C2=O)C2OC(=O)CC2OC1(C)C (stereo not drawn)
- GI50 [1]: 254 nM (active)
- GI50 [2]: 76.4 nM (active)
- GI50 [3]: 301 nM (active)
- GI50 [4]: 760 nM (active)
- GI50 [5]: 735 nM (active)
- GI50 [6]: 23.9 nM (active)
- GI50 [7]: 20.9 nM (active)
- GI50 [8]: 248 nM (active)
- GI50 [9]: 53.3 nM (active)
- GI50 [10]: 223 nM (active)
- GI50 [11]: 198 nM (active)
- GI50 [12]: < 10 nM (active)
- GI50 [13]: 237 nM (active)
- GI50 [14]: 58.8 nM (active)
- GI50 [15]: 321 nM (active)
- GI50 [16]: 52.5 nM (active)
- GI50 [17]: 68.1 nM (active)
- GI50 [18]: 121 nM (active)
- GI50 [19]: 159 nM (active)
- GI50 [20]: 120 nM (active)
- GI50 [21]: 458 nM (active)
- GI50 [22]: 684 nM (active)
- GI50 [23]: 46.2 nM (active)
- GI50 [24]: 161 nM (active)
- GI50 [25]: 209 nM (active)
- GI50 [26]: 964 nM (active)
- GI50 [27]: 258 nM (active)
- GI50 [28]: 281 nM (active)
- GI50 [29]: 179 nM (active)
- GI50 [30]: 290 nM (active)
- GI50 [31]: 64.3 nM
- GI50 [32]: 301 nM (active)
- GI50 [33]: 160 nM (active)
- GI50 [34]: 109 nM (active)
- GI50 [35]: 205 nM (active)
- GI50 [36]: 1640 nM (inactive)
- GI50 [37]: 317 nM (active)
- GI50 [38]: 78.2 nM (active)
- GI50 [39]: 185 nM (active)
- GI50 [40]: 308 nM (active)
- GI50 [41]: 979 nM (active)
- GI50 [42]: 1530 nM (inactive)
- GI50 [43]: 179 nM (active)
- GI50 [44]: 1690 nM (inactive)
- GI50 [45]: 38.9 nM (active)
- GI50 [46]: 1830 nM (inactive)
- GI50 [47]: 625 nM (active)
- GI50 [48]: 188 nM (active)
- GI50 [49]: 431 nM (active)
- GI50 [50]: 304 nM (active)
- GI50 [51]: 107 nM (active)
- GI50 [52]: 1180 nM (inactive)
- GI50 [53]: 14.8 nM (active)
- GI50 [54]: 193 nM (active)
- GI50 [55]: 73.6 nM (active)
- GI50 [56]: 1160 nM (inactive)
- GI50 [57]: 77.6 nM (active)
- GI50 [58]: 1350 nM (inactive)
- GI50 [59]: 1250 nM (inactive)

Structure (SMILES): CN(C)/C=N/S(=O)(=O)c1nn2c(C=O)c(-c3ccc(-c4ccc([N+](=O)[O-])cc4)o3)nc2s1
- GI50 [1]: 2120 nM (inactive)
- GI50 [2]: 2650 nM (inactive)
- GI50 [3]: 4040 nM (inactive)
- GI50 [4]: 1630 nM (inactive)
- GI50 [5]: 3390 nM (inactive)
- GI50 [6]: 426 nM (active)
- GI50 [7]: 1100 nM (active)
- GI50 [8]: 5330 nM (inactive)
- GI50 [9]: 2130 nM (inactive)
- GI50 [10]: 4610 nM (inactive)
- GI50 [11]: 7410 nM (inactive)
- GI50 [12]: 2070 nM (inactive)
- GI50 [13]: 2150 nM (inactive)
- GI50 [14]: 611 nM (active)
- GI50 [15]: 3100 nM (inactive)
- GI50 [16]: 1380 nM (inactive)
- GI50 [17]: 1340 nM (inactive)
- GI50 [18]: 1840 nM (inactive)
- GI50 [19]: 3540 nM (inactive)
- GI50 [20]: 308 nM (active)
- GI50 [21]: 1910 nM (inactive)
- GI50 [22]: 2400 nM (inactive)
- GI50 [23]: 1990 nM (inactive)
- GI50 [24]: 1710 nM (inactive)
- GI50 [25]: 5070 nM (inactive)
- GI50 [26]: 7280 nM (inactive)
- GI50 [27]: 1070 nM (active)
- GI50 [28]: 1100 nM (active)
- GI50 [29]: 1720 nM (inactive)
- GI50 [30]: 8040 nM (inactive)
- GI50 [31]: 2210 nM
- GI50 [32]: 3880 nM (inactive)
- GI50 [33]: 3370 nM (inactive)
- GI50 [34]: 2250 nM (inactive)
- GI50 [35]: 1910 nM (inactive)
- GI50 [36]: 3640 nM (inactive)
- GI50 [37]: 4760 nM (inactive)
- GI50 [38]: 933 nM (active)
- GI50 [39]: 1720 nM (inactive)
- GI50 [40]: 2680 nM (inactive)
- GI50 [41]: 20500 nM (inactive)
- GI50 [42]: 3620 nM (inactive)
- GI50 [43]: 3680 nM (inactive)
- GI50 [44]: 9180 nM (inactive)
- GI50 [45]: 883 nM (active)
- GI50 [46]: 15300 nM (inactive)
- GI50 [47]: 8150 nM (inactive)
- GI50 [48]: 931 nM (active)
- GI50 [49]: 5640 nM (inactive)
- GI50 [50]: 5520 nM (inactive)
- GI50 [51]: 1970 nM (inactive)
- GI50 [52]: 7430 nM (inactive)
- GI50 [53]: 807 nM (active)
- GI50 [54]: 2330 nM (inactive)
- GI50 [55]: 1780 nM (inactive)
- GI50 [56]: 13900 nM (inactive)
- GI50 [57]: 1190 nM (inactive)
- GI50 [58]: 36100 nM (inactive)
- GI50 [59]: 7080 nM (inactive)
